In US20100160454A1, “ANTIMICROBIAL AGENTS, COMPOSITIONS AND PRODUCTS CONTAINING THE SAME, AND METHODS OF USING THE COMPOSITIONS AND PRODUCTS” (Eastman Chemical Company, priority 2008, published 2010):

Tests used:
Experiment in all cases: Microbiological challenge testing in BPW broth, graded subculture counts
Assay type in all cases: cell-based
[1] = system: Pseudomonas aeruginosa Wild type; conditions: P. aeruginosa
Method: (§1) The microorganisms in the table below were used in challenge tests. They were either ATCC (American Type Culture Collection) or “wild type” as indicated. Wild type organisms were problematic organisms previously isolated from chemical products.
(§2) All of the microorganisms were grown in Tryptose Soy Broth (TSB), DIFCO™ available from Becton, Dickinson and Company, containing 1% dextrose. Candida albicans and Aspergillus niger, were incubated at 22° C.+/−2° C. for at least 96 hours. All bacteria were incubated at 35° C.+/−2° C. in a humidified incubator for at least 96 hours.
(§3) The following procedure was followed to determine the amount of each challenge material (inoculum broth) needed to produce a 10^8 CFU/mL challenge, which is equivalent to a final test-sample microbial concentration of 10^5 to 10^6 CFU/mL (CFU=colony forming units).
(§4) Using a sterile pipette, 1 mL of the growth from each TSB culture was transferred into tubes of 9 mL buffered water (pH 7.2 phosphate buffer) and mixed thoroughly. This was repeated to make serial 1:10 dilutions. Then, 0.1 mL of each sample and dilution was inoculated onto agar plates to produce the equivalent of a further 1:10 dilution. (C. albicans and A. niger were inoculated onto SABD and bacteria were inoculated onto Plate Count Agar (PCA), DIFCO™ available from Becton, Dickinson and Company.) (The normal volume plated for most samples was 0.1 mL. Some samples that could be very low in micro-organisms (high dilutions) were plated using 0.5 mL of inoculum, in order to produce reproducible counts.) The samples were distributed on the plates using the spread-plate technique. The spread-plate technique is carried out by spreading the sample over the entire plate surface using a sterile spreading rod while rotating the plate with a rotary auto-plater. After the inoculum was absorbed completely by the agar, each plate was inverted and incubated (fungi at 22° C.+/−2° C. and bacteria at 35° C.+/−2° C.).
(§5) After incubation for at least 48 hours, colonies that had developed on the agar plates were counted (CFU) and recorded with the corresponding dilution. If counting had to be delayed temporarily, plates were refrigerated, preferably no more than 24 hours, until they could be counted. The number of CFU/mL was determined by multiplying the plate count by the dilution factor of the plate counted.
(§6) Turbidity in Nepholemetric Turbidity Units (NTU) was measured for each serial dilution using the HF-Micro 100 Model Turbidimeter. For each microorganism, the plate counts were compared to the turbidity readings.
(§7) Control substrates (“broth alone”) were prepared for each microorganism separately in triplicate by adding 13.5 mL of Buffered Peptone Water broth (BPW) containing 1% dextrose to each 20-mL glass tube, then adding 1.5 mL challenge material to produce a final concentration at time zero of 10^5 to 10^6 CFU/mL and a total volume of 15 mL.
(§8) Test sample substrates were prepared containing each test material listed below at the concentrations shown for challenge testing with each microorganism separately. Sample substrates were prepared in triplicate, except the substrates containing butoxyethanol which were prepared in duplicate. Substrates were prepared by adding BPW containing 1% dextrose to each 20-mL glass tube, then adding the test material in the amount appropriate to achieve the desired weight/volume percent and to achieve a total volume of BPW plus dextrose plus test material of 13.5 mL. Then 1.5 mL challenge material was added to produce a final concentration at time zero of 10^5 to 10^6 CFU/mL and a total test sample substrate volume of 15 mL.

[2] = system: Bacillus subtilis Wild type
Method: as §1, §2, §3, §4, §5, §6, §7, §8

[3] = system: Streptococcus mutans ATCC 35668
Method: as §1, §2, §3, §4, §5, §6, §7, §8

[4] = system: Candida albicans Wild type; conditions: C. albicans
Method: as §1, §2
(§9) Candida albicans and Aspergillus niger were also grown on Sabouraud Dextrose Agar (SABD) at 22° C. for 7 to 14 days or until full sporulation was achieved.
as §3, §4, §5, §6
On the day of challenge, the Candida albicans inoculum broth was poured through nonabsorbent sterile gauze and centrifuged. The […] was then diluted with buffered water (pH 7.2 phosphate buffer) until the desired turbidity was reached. Using a hemocytometer, a determination was made whether the challenge contained the desired concentration. Dilutions were made through 1.0×10^8 and three SABD spread plates were inoculated with 0.1 mL of each dilution. The plates were incubated for at least 48 hours and challenge counts were confirmed.
as §7

[5] = system: Aspergillus niger Wild type; conditions: A. niger
Method: as §1, §2, §9, §3, §4, §5, §6
Aspergillus niger cultures were harvested and spores dislodged from the SABD on which they were grown by rubbing the growth gently with a sterile inoculating loop. The spores were then mixed into the broth culture that had been incubated with a sterile magnetic stir bar to reduce pellicle formation. The spore-culture mixture was filtered repeatedly through sterile, nonabsorbent cotton and harvested repeatedly, adjusting vegetative cells and spores to a level of 1.0×10^8. A hemocytometer was used to verify the final challenge concentration.
as §7

OCC1CCC(CO)CC1 (stereo not drawn) [1,4-CHDM, 1,4-cyclohexanedimethanol] was tested, and the Grade ([1]; 0.5% (wt/vol), 3 day) was 4 (1000 to 10,000 colonies countable (thus 10,000 CFU/mL to 100,000 CFU/mL)), the Grade ([1]; 0.5% (wt/vol), 13 day) was 4 (1000 to 10,000 colonies countable (thus 10,000 CFU/mL to 100,000 CFU/mL)) and the Grade ([1]; 0.5% (wt/vol), 30 day) was 4 (1000 to 10,000 colonies countable (thus 10,000 CFU/mL to 100,000 CFU/mL)). The Grade ([1]; 1.25% (wt/vol), 3 day) was 4 (1000 to 10,000 colonies countable (thus 10,000 CFU/mL to 100,000 CFU/mL)), the Grade ([1]; 1.25% (wt/vol), 13 day) was 3 (100 to 1000 colonies (thus 1000 to 10,000 CFU/mL)) and the Grade ([1]; 1.25% (wt/vol), 30 day) was 4 (1000 to 10,000 colonies countable (thus 10,000 CFU/mL to 100,000 CFU/mL)). For the same compound, the Grade ([1]; 2.5% (wt/vol), 3 day) was 3 (100 to 1000 colonies (thus 1000 to 10,000 CFU/mL)), the Grade ([1]; 2.5% (wt/vol), 13 day) was 2 (52 to 100 colonies counted (thus 520 to 1000 CFU/mL)) and the Grade ([1]; 2.5% (wt/vol), 30 day) was 0. For the same compound, the Grade ([1]; 5.0% (wt/vol), 3 day) was 0, the Grade ([1]; 5.0% (wt/vol), 13 day) was 0 and the Grade ([1]; 5.0% (wt/vol), 30 day) was 0. The “B. subtillis growth grade, 3 day” value ([2]; 0.5% weight/volume) was 4 (1000 to 10,000 colonies countable (thus 10,000 CFU/mL to 100,000 CFU/mL)), the “B. subtillis growth grade, 14 day” value ([2]; 0.5% weight/volume) was 4 (1000 to 10,000 colonies countable (thus 10,000 CFU/mL to 100,000 CFU/mL)) and the “B. subtillis growth grade, 30 day” value ([2]; 0.5% weight/volume) was 4 (1000 to 10,000 colonies countable (thus 10,000 CFU/mL to 100,000 CFU/mL)). For the same compound, the “B. subtillis growth grade, 3 day” value ([2]; 1.25% weight/volume) was 4 (1000 to 10,000 colonies countable (thus 10,000 CFU/mL to 100,000 CFU/mL)), the “B. subtillis growth grade, 14 day” value ([2]; 1.25% weight/volume) was 4 (1000 to 10,000 colonies countable (thus 10,000 CFU/mL to 100,000 CFU/mL)) and the “B. subtillis growth grade, 30 day” value ([2]; 1.25% weight/volume) was 4 (1000 to 10,000 colonies countable (thus 10,000 CFU/mL to 100,000 CFU/mL)). For the same compound, the “B. subtillis growth grade, 3 day” value ([2]; 2.5% weight/volume) was 3 (100 to 1000 colonies (thus 1000 to 10,000 CFU/mL)), the “B. subtillis growth grade, 14 day” value ([2]; 2.5% weight/volume) was 2 (52 to 100 colonies counted (thus 520 to 1000 CFU/mL)) and the “B. subtillis growth grade, 30 day” value ([2]; 2.5% weight/volume) was 1 (0 to 51 colonies counted (thus 10 to 510 CFU/mL based on 0.1-mL sample)). For the same compound, the “B. subtillis growth grade, 3 day” value ([2]; 5.0% weight/volume) was 1 (0 to 51 colonies counted (thus 10 to 510 CFU/mL based on 0.1-mL sample)), the “B. subtillis growth grade, 14 day” value ([2]; 5.0% weight/volume) was 0 and the “B. subtillis growth grade, 30 day” value ([2]; 5.0% weight/volume) was 0. The “S. mutans growth grade, 3 day” value ([3]; 0.5% weight/volume) was 4 (1000 to 10,000 colonies countable (thus 10,000 CFU/mL to 100,000 CFU/mL)), the “S. mutans growth grade, 13 day” value ([3]; 0.5% weight/volume) was 4 (1000 to 10,000 colonies countable (thus 10,000 CFU/mL to 100,000 CFU/mL)) and the “S. mutans growth grade, 30 day” value ([3]; 0.5% weight/volume) was 4 (1000 to 10,000 colonies countable (thus 10,000 CFU/mL to 100,000 CFU/mL)). For the same compound, the “S. mutans growth grade, 3 day” value ([3]; 1.25% weight/volume) was 4 (1000 to 10,000 colonies countable (thus 10,000 CFU/mL to 100,000 CFU/mL)), the “S. mutans growth grade, 13 day” value ([3]; 1.25% weight/volume) was 2 (52 to 100 colonies counted (thus 520 to 1000 CFU/mL)) and the “S. mutans growth grade, 30 day” value ([3]; 1.25% weight/volume) was 2 (52 to 100 colonies counted (thus 520 to 1000 CFU/mL)). For the same compound, the “S. mutans growth grade, 3 day” value ([3]; 2.5% weight/volume) was 2 (52 to 100 colonies counted (thus 520 to 1000 CFU/mL)), the “S. mutans growth grade, 13 day” value ([3]; 2.5% weight/volume) was 0 and the “S. mutans growth grade, 30 day” value ([3]; 2.5% weight/volume) was 0. The “S. mutans growth grade, 3 day” value ([3]; 5.0% weight/volume) was 0, the “S. mutans growth grade, 13 day” value ([3]; 5.0% weight/volume) was 0 and the “S. mutans growth grade, 30 day” value ([3]; 5.0% weight/volume) was 0. For the same compound, the Grade ([4]; 0.5% (wt/vol), 3 day) was 3 (100 to 1000 colonies (thus 1000 to 10,000 CFU/mL)), the Grade ([4]; 0.5% (wt/vol), 14 day) was 4 (1000 to 10,000 colonies countable (thus 10,000 CFU/mL to 100,000 CFU/mL)) and the Grade ([4]; 0.5% (wt/vol), 30 day) was 4 (1000 to 10,000 colonies countable (thus 10,000 CFU/mL to 100,000 CFU/mL)). The Grade ([4]; 1.25% (wt/vol), 3 day) was 1 (0 to 51 colonies counted (thus 10 to 510 CFU/mL based on 0.1-mL sample)), the Grade ([4]; 1.25% (wt/vol), 14 day) was 3 (100 to 1000 colonies (thus 1000 to 10,000 CFU/mL)) and the Grade ([4]; 1.25% (wt/vol), 30 day) was 4 (1000 to 10,000 colonies countable (thus 10,000 CFU/mL to 100,000 CFU/mL)). The Grade ([4]; 2.5% (wt/vol), 3 day) was 0, the Grade ([4]; 2.5% (wt/vol), 14 day) was 2 (52 to 100 colonies counted (thus 520 to 1000 CFU/mL)) and the Grade ([4]; 2.5% (wt/vol), 30 day) was 1 (0 to 51 colonies counted (thus 10 to 510 CFU/mL based on 0.1-mL sample)). The Grade ([4]; 5.0% (wt/vol), 3 day) was 0, the Grade ([4]; 5.0% (wt/vol), 14 day) was 0 and the Grade ([4]; 5.0% (wt/vol), 30 day) was 0. The Grade ([5]; 0.5% (wt/vol), 3 day) was 4, the Grade ([5]; 0.5% (wt/vol), 13 day) was 4 and the Grade ([5]; 0.5% (wt/vol), 30 day) was 4. For the same compound, the Grade ([5]; 1.25% (wt/vol), 3 day) was 4, the Grade ([5]; 1.25% (wt/vol), 13 day) was 4 and the Grade ([5]; 1.25% (wt/vol), 30 day) was 4. For the same compound, the Grade ([5]; 2.5% (wt/vol), 3 day) was 2 (Countable (10 to 100 colonies)), the Grade ([5]; 2.5% (wt/vol), 13 day) was 1 (Countable (1 to 10 colonies)) and the Grade ([5]; 2.5% (wt/vol), 30 day) was 2.3. For the same compound, the Grade ([5]; 5.0% (wt/vol), 3 day) was 0, the Grade ([5]; 5.0% (wt/vol), 13 day) was 0 and the Grade ([5]; 5.0% (wt/vol), 30 day) was 0.
